# Results: patent US5147652A, “Autobiotics and their use in eliminating nonself cells in vivo” (priority 1990, dated 1992)
# Tests used:
# [1] = system: Candida albicans; experiment: Effect on proliferation of Candida albicans, disk on agar surface (A); format: cell-based
# Method: Stock solutions of the following test compounds were dissolved in physiological saline. However DOV was dissolved in water.
# C. albicans isolated from clinical specimens were density grown in SubbaRow's broth at 35 C. A loopful of yeast suspension was evenly spread on the surface of Muller-Hilton agar plates (7cm diameter) with a sterile cotton applicator and incubated for 12 hours. The test compounds were placed on the surface of the sensidisks (Whatmann No. 17 paper, 6mm diameter) in a volume of 5, 10, 20, and 50 μliter of stock solutions and made up a final volume of 50 μliter with saline. The plates then were placed and kept at 37 C for 24 hours (*) and 48 hours (**) when the diameters of the inhibitory rings were recorded. Photographs were also taken of plates.
# [2] = system: blood coagulation (citrated human blood plasma); experiment: Blood coagulation (i), ketoaldehyde kept 1-2 seconds before plasma added; format: biochemical; conditions: for d % (clotting activity) / coagulation time / clot: 1-2 seconds contact; for d % (clotting activity): control 22; for coagulation time: control 24; for clot: control hard; for anti-coagulant effectiveness: summary of Example 9
# Method: (§1) 200 microliter thromboplastin (Ortho) was mixed with 10 microliter ketoaldehyde (KA) stock solution. Then 100 microliter citrated human blood plasma was added and the clot formation time (in seconds) was measured on a Fibrionometer. The effect of the ketoaldehyde on coagulation time was evaluated by comparing the clotting time of the KA treated plasma with the untreated control. The result (d%) was read from a special chart expressing the clotting activity.
# (§2) All measurements were run in triplicates. The assay was run at 37 C (waterbath) in special tubes and all solutions were prewarmed.
# (i) The plasminogen and ketoaldehyde were kept for
# 1-2 seconds before the blood plasma was added.
# [3] = system: blood coagulation (normal plasma); experiment: Blood coagulation (ii)(b), normal plasma; format: biochemical, human
# Method: as §1, §2
# (ii) The plasminogen and KA were incubated for
# varying time before the blood plasma was added.
# (b) with normal plasma: clotting time = 11. 7 sec
# [4] = system: Penicillum notatum; experiment: Inhibition of proliferation of molds, disk assay; format: cell-based; conditions: 8 days; for persistence of inhibition rings: highest concentration; for spore formation / mycelium development in second ring: penicillin plate
# [5] = system: Aspergillus niger; experiment: Inhibition of proliferation of molds, disk assay; format: cell-based; design: unit not given here; conditions: 40 hrs
# Method: (§3) (1) Stock solutions in 26% 2 popanediol:
# (§4) (3) Assay: The microorganisms were grown in Saburand's dextrose agar (Scott) at 35 C for stock cultures. For assay the spores were plated on Mueller-Hilton agar plates (7cm dia). The test compounds were applied to the plates on sensi disks (6 mm dia, Whatmann #17 paper) in volumes of 10, 20, 30, 40 microliter made up to 40 plating volume of microliter with the solvent. The plates were incubated at room temperature and in the dark for 40 hrs. The diameter of the inhibition ring around the sensi disks were measured.
# [6] = system: Penicillum notatum; experiment: Inhibition of proliferation of molds, disk assay; format: cell-based; design: unit not given here; conditions: 40 hrs
# Method: as §3, §4
# [7] = system: C. albicans; experiment: Inhibition of C. albicans, yeast mixed in agar (B); format: cell-based; conditions: 30 μl test, 24 hrs incubation; mean of twenty assays
# Method: Stock cultured C. albicans is used. The yeast isolated from clinical specimens was stock cultured (subcultured) on semisolid trypsoy agar plates. […] Thus, from the subculture(s), transfers were made every 48 hrs into SRB to keep the experimental strain available for assays. From the 24-48 hrs SRB cultures a loopful of turbid solutions was transferred and spread on either (a) trypsoy agar plates or (b) EBM agar plates which were fortified with horse and calf serum and incubated at 36 C for 24-48 hrs. […] Plate (a) was selected for growth inhibition assay(s) with ketoaldehydes.
# One milliliter of SRB culture (24-48 hrs growth) was mixed with 10 ml trypsoy agar, warmed to 38 C and rapidly poured into sterile Petri dishes (7cm), spread evenly and allowed to solidify. The selected test compounds (in 30 μl total volume, as above) were placed in sensidisks (6mm dia, Whatman #17) on the infected agar surface. The plates were incubated for 24 hrs at 37 C. The extent of inhibition, clear zones around the sensi disks, were measured and recorded. In some cases contact photorecords were also made with the plates. (The dark zones on the photos are the inhibition (no growth) areas of C. albicans.
# These assays were aimed at finding the variations of inhibition due to (i) the variable amount of yeast in (ii) a three dimensional area of the plates. Each result is the statistical mean of twenty assays on different batches of C. albicans.
# [8] = system: skin graft rejection; experiment: Combatting rejection mechanism: orthotopic skin transplants between Swiss albino and C3HStCrl mice; format: in vivo
# Method: The experiments described here were performed on random-bred Swiss albino mice (white, females, average body weight 26±3 g; Charles River CD-1-strain) and inbred C3HStCrl mice (cinnamon gray, females, average body weight […]; Charles River pedigreed breeders from L.C. Strong Foundation) and othotopic skin transplants were made in both ways, that is, white to gray and gray to white.
# Standard transplantation technique (Billingham, R.E. and W.K. Silvers in Transplantation of Tissues and Cells, The Wistar Institute Press, Philadelphia, p. 8, (1961)) was utilized: From nembutal anesthetized animals 4-6 "pinch" -grafts (full thickness, 3-4 mm in diameter) of the close clipped and sterilized skin were collected from the thorax and immediately transplanted. The grafts were positioned in the "beds" (in place of the pinch-graft) and were held in position by tulle gras (vaseline-impregnated gauze) and by plaster-of-Paris impregnated bandage around the thorax.
# The bandages were removed on the 6-9th day after the transplantation and the future development of the grafts was followed by macroscopical observations.
# a. Animals were treated for 10 days with the composition before grafts were exchanged and treatment was discontinued on the day of transplantation.
# b. Animals were not treated before the grafts were exchanged but the treatment started on the day of transplantation and continued for 10 days.
# c. Animals were treated for 10 days with the drug before the grafts were exchanged and the treatment schedule was continued for 25 days after the transplantation.
# +Treatment: daily injection with 3.744 mg/kg methylglyoxalmalcimide in 1.
# [9] = system: Candida albicans; conditions: cited from earlier work
# [10] = system: implantation of fertilized mouse eggs; experiment: Preventing pregnancy in mice; format: in vivo
# Method: Six 5 month old female CD-1 mice were injected intraperitoneally with N-1 hydroxy acetonyl maleimide for 12 days (50 microgram/ 20 g mice in saline: max volume 0.6 ml/A/D). Another group of the same mice were injected intraperitoneally with saline for 12 days (0.4ml). this second group of mice served as the control.
# Two experienced males were introduced to each group of females and kept together for 8 days during which time the females received their daily injection. Copulation plugs were seen on each female by the 12th day of injection, and signs of pregnancy were seen on the control females on the 15-16th day of the experiment. The females delivered on 20-23 (control) and 24-27th (treated) day respectively (Table 3).
# The experiment was repeated with the same females two months later, except that females of the control group were assigned to the test group, while females of the test group were reassigned to the control group. […] The control group delivered 102 pups (T/C =100%).
# [11] = 10x diluted, incubation time 10 seconds
# [12] = ip, 50 microgram/20 g mice, 12 females
# [13] = 20x diluted, incubation time 30 seconds
compound,measurement,setting,value
"CC(=O)CC(=O)C(=O)O [DOV, 2,4-dioxovaleric acid, reference compound]","inhibition diameters, in words","[1]; 5-50 μliter, 24 hours (*)",negligible
"O=CC(=O)CCl [CMG, chloromethylglyoxal]",d % (clotting activity),[2],infinite
same,coagulation time,[2],> 200 s
same,clot,[2],no
same,anti-coagulant effectiveness,[2],most effective anti-coagulants
same,clotting time,[3]; [11],13.5 s
same,d%,[3]; [11],37%
same,clotting time,[3]; incubation time 15 seconds,19.4 s
same,d%,[3]; incubation time 15 seconds,33%
same,clotting time,[3]; incubation time 100 seconds,> 178.0 s
same,persistence of inhibition rings,[4],remained unchanged
same,spore formation / mycelium development in second ring,[4],spore formation in this area was inhibited while mycelium development was not
same,diameter of inhibition ring,[5]; 10 microliter,8
same,diameter of inhibition ring,[5]; 20 microliter,11
same,diameter of inhibition ring,[5]; 30 microliter,17
same,diameter of inhibition ring,[5]; 40 microliter,22
same,diameter of inhibition ring,[6]; 10 microliter,8
same,diameter of inhibition ring,[6]; 20 microliter,10
same,diameter of inhibition ring,[6]; 30 microliter,12
same,diameter of inhibition ring,[6]; 40 microliter,14
same,inhibition diameters,"[1]; 10 μliter, 24 hours (*)",7 mm
same,inhibition diameters,"[1]; 20 μliter, 24 hours (*)",21 mm
same,inhibition diameters,"[1]; 20 μliter, 48 hours (**)",10 mm
same,inhibition diameters,"[1]; 50 μliter, 24 hours (*)",33 mm
same,inhibition diameters,"[1]; 50 μliter, 48 hours (**)",31 mm
same,inhibition diameters,[7],26.6 mm
methylglyoxalmalcimide,rejection,"[8]; (a) pretreatment 10 days, printed g to 2, 31-40 days, cumulative",100%
same,rejection,"[8]; (a) pretreatment 10 days, w to g, 26-30 days, cumulative",30%
same,rejection,"[8]; (b) post graft treatment 10 days, printed g to 2, 31-40 days, cumulative",10%
same,rejection,"[8]; (b) post graft treatment 10 days, w to g, 26-31 days, cumulative",10%
same,rejection,"[8]; (c) pretreatment 10 days and post graft 25 days, g to w, 31-40 days, cumulative",10%
same,rejection,"[8]; (c) pretreatment 10 days and post graft 25 days, w to g, 26-30 days",No rejection
"Nc1nc(=O)[nH]cc1F [5FC, 5 fluorocytosine, reference compound]",inhibition diameters,"[1]; 5 μliter, 24 hours (*)",33 mm
same,inhibition diameters,"[1]; 10 μliter, 24 hours (*)",45 mm
same,inhibition diameters,"[1]; 20 μliter, 24 hours (*)",50 mm
same,inhibition diameters,"[1]; 50 μliter, 24 hours (*)",55 mm
same,duration of action against Candida,[9],shortlived action
same,toxicity to the host,[9],low toxicity to the host
CC(=O)C(O)N1C(=O)C=CC1=O (centres unmarked) [MGMALI],inhibition diameters,"[1]; 10 μliter, 24 hours (*)",8 mm
same,inhibition diameters,"[1]; 20 μliter, 24 hours (*)",18 mm
same,inhibition diameters,"[1]; 20 μliter, 48 hours (**)",17 mm
same,inhibition diameters,"[1]; 50 μliter, 24 hours (*)",22 mm
same,inhibition diameters,"[1]; 50 μliter, 48 hours (**)",22 mm
same,I %,"[10]; ip, 50 microgram/20 g mice",89.7%
same,T/C %,"[10]; ip, 50 microgram/20 g mice",10.3%
same,delivered (pups),[10]; [12],11
same,females that delivered,[10]; [12],2 female
same,inhibition of delivery,"[10]; second experiment, groups exchanged, two months later",83.3%
same,day of delivery,"[10]; treated females, control 20-23",24 to 27 days
"O=CC(=O)Cc1ccccc1 [PMG, 3-Phenylmethylglyoxal]",d % (clotting activity),[2],10.5%
same,coagulation time,[2],36 s
same,clot,[2],hard
same,clotting time,[3]; incubation time 120 seconds,21.2 s
same,d%,[3]; incubation time 120 seconds,28%
"C[C@@H]1[C@H](O)[C@@H](C)/C=C/C=C/C=C/C=C/C=C/C=C/C=C/[C@H](O[C@@H]2O[C@H](C)[C@@H](O)[C@H](N)[C@@H]2O)C[C@@H]2O[C@](O)(C[C@@H](O)C[C@@H](O)[C@H](O)CC[C@@H](O)C[C@@H](O)CC(=O)O[C@H]1C)C[C@H](O)[C@H]2C(=O)O [AMP-B, amphotericin-B, reference compound]",inhibition diameters,"[1]; 20 μliter, 24 hours (*)",2 mm
same,inhibition diameters,"[1]; 50 μliter, 24 hours (*)",5 mm
"CCOC(C)C(=O)C=O (centres unmarked) [KE, kethoxal, reference compound]",inhibition diameters,"[1]; 10 μliter, 24 hours (*)",7 mm
same,inhibition diameters,"[1]; 20 μliter, 24 hours (*)",17 mm
same,inhibition diameters,"[1]; 20 μliter, 48 hours (**)",16 mm
same,inhibition diameters,"[1]; 50 μliter, 24 hours (*)",25 mm
same,inhibition diameters,"[1]; 50 μliter, 48 hours (**)",24 mm
"O=C1C=CC(=O)N1 [MALI, maleimide, reference compound]",inhibition diameters,"[1]; 5 μliter, 24 hours (*)",13 mm
same,inhibition diameters,"[1]; 10 μliter, 24 hours (*)",21 mm
same,inhibition diameters,"[1]; 10 μliter, 48 hours (**)",17 mm
same,inhibition diameters,"[1]; 20 μliter, 24 hours (*)",29 mm
same,inhibition diameters,"[1]; 20 μliter, 48 hours (**)",25 mm
same,inhibition diameters,"[1]; 50 μliter, 24 hours (*)",30 mm
same,inhibition diameters,"[1]; 50 μliter, 48 hours (**)",30 mm
"CC(=O)CC(=O)C=O [AcMG, 3-acetylmethylglyoxal]",d % (clotting activity),[2],28%
same,coagulation time,[2],21.5 s
same,clot,[2],hard
same,clotting time,[3]; incubation time 120 seconds,13.9 s
same,d%,[3]; incubation time 120 seconds,78%
same,inhibition diameters,"[1]; 10 μliter, 24 hours (*)",18 mm
same,inhibition diameters,"[1]; 10 μliter, 48 hours (**)",11 mm
same,inhibition diameters,"[1]; 20 μliter, 24 hours (*)",31 mm
same,inhibition diameters,"[1]; 20 μliter, 48 hours (**)",24 mm
same,inhibition diameters,"[1]; 50 μliter, 24 hours (*)",34 mm
same,inhibition diameters,"[1]; 50 μliter, 48 hours (**)",30 mm
same,inhibition diameters,[7],25.3 mm
"O=CC(=O)C(Cl)Cl [DCMG, 3,3-dichloromethylglyoxal]",d % (clotting activity),[2],infinite
same,coagulation time,[2],> 200 s
same,clot,[2],no
same,anti-coagulant effectiveness,[2],most effective anti-coagulants
same,clotting time,[3]; [11],12.9 s
same,clotting time,[3]; [13],20.0 s
same,d%,[3]; [13],14.7%
same,clotting time,[3]; incubation time 15 seconds,> 170.0 s
same,persistence of inhibition rings,[4],remained unchanged
same,spore formation / mycelium development in second ring,[4],spore formation in this area was inhibited while mycelium development was not
same,diameter of inhibition ring,[5]; 10 microliter,10
same,diameter of inhibition ring,[5]; 20 microliter,12
same,diameter of inhibition ring,[5]; 30 microliter,14
same,diameter of inhibition ring,[5]; 40 microliter,15
same,diameter of inhibition ring,[6]; 10 microliter,8
same,diameter of inhibition ring,[6]; 20 microliter,10
same,diameter of inhibition ring,[6]; 30 microliter,13
same,diameter of inhibition ring,[6]; 40 microliter,16
same,inhibition diameters,"[1]; 10 μliter, 24 hours (*)",8 mm
same,inhibition diameters,"[1]; 20 μliter, 24 hours (*)",20 mm
same,inhibition diameters,"[1]; 20 μliter, 48 hours (**)",17 mm
same,inhibition diameters,"[1]; 50 μliter, 24 hours (*)",32 mm
same,inhibition diameters,"[1]; 50 μliter, 48 hours (**)",29 mm
same,inhibition diameters,[7],23.0 mm
